We go through 5 compounds from patent publication EP0440324B1, “Substituted beta-diketones and their use in the treatment of inflammatory bowel disease” (ORION-YHTYMÄ OY, priority 1990, dated 1991).

This experiment concerns TNB-induced chronic colitis. In words: TNB-induced chronic colitis in the rat (damage score of the colon). The conditions noted are these: damage score of chronic inflammation induced by TNB, colons scored 96 h after TNB. In kind it is in vivo, Wistar rats. The method, then:
20 mg of TNB (2,4,6-trinitrobenzenesulfonic acid) in 50 % ethanol was administered into the lumen of the colon via a rubber catheter inserted rectally to Wistar rats. The test compounds were given rectally 1 h prior and 24, 48, 72 and 95 h after TNB. The rats were sacrificed 96 h after TNB and their colons were scored according to occurence of ulcers and inflammation. The number of animals in each group was at least 8. 5-ASA (5-aminosalicylic acid), a clinically used drug for the treatment of IBD was used as a reference compound.

Setting [1] is: dose 30 mg/kg rectally 1 h prior and 24, 48, 72 and 95 h after TNB.

Consider “3-[(5-Nitrothienyl)methylene]-2,4-pentanedione [Example 13]”, for which the “% inhibition against control” value under setting [1] was 58%.
Same read-out and setting: next, “3-[3-(4-Methoxyphenyl)propenylene]-2,4-pentanedione [Example 11]”: 32%.
Consider `Nc1ccc(O)c(C(=O)O)c1` [5-ASA, 5-aminosalicylic acid, reference compound], for which the inhibition in vivo at 100 mg/kg (Rattus norvegicus, dose 100 mg/kg rectally 1 h prior and 24, 48, 72 and 95 h after TNB, read-out: % inhibition against control) stood at 24%.
As to “3-[(3,5-Dinitro-4-hydroxyphenyl)methylene]-2,4-pentanedione. [Example 9]”, the “% inhibition against control” value under setting [1] is recorded as 40%.
As for `CC(=O)C(=Cc1ccc(C(=O)NCCc2ccccc2)cc1)C(C)=O` [Test compound 9, 3-[(4-(N-phenethyl)carboxamido-phenyl)methylene]-2,4-pentanedione], the inhibition in vivo at 10 mg/kg (Rattus norvegicus, dose 10 mg/kg rectally 1 h prior and 24, 48, 72 and 95 h after TNB, read-out: % inhibition against control) is 60%. In addition, the inhibition in vivo at 30 mg/kg (Rattus norvegicus, dose 30 mg/kg rectally 1 h prior and 24, 48, 72 and 95 h after TNB, read-out: % inhibition against control) stood at 48%.
